Results published in paper PMC6832239, “The Effects of a Novel Series of KTTKS Analogues on Cytotoxicity and Proteolytic Activity” (Molecules, 2019).
“Also recorded” adds a separate entry of the source. Like-named read-outs stand apart in the source and are kept apart here. Residues, ends and D or L forms follow the SMILES beside them.

How the values were obtained:
thrombin = biological target: T1, thrombin (Bos taurus, UniProt P00735); assay: Amidolytic activity of thrombin (chromogenic substrate H-D-Phe-Pip-Arg-pNA); type: biochemical; conditions: for IC50: amidolytic activity, Tris pH 8.4, 37 °C, IC50 by extrapolation using a linear plot, error 5%, read-out: IC50 Thrombin
T1 construct: purchased Lubelska Wytwórnia Szczepionek (Lublin, Poland)
Procedure: The determination of amidolytic activity was performed as previously described by Okada. A detailed description of the method is given below: 0.2 mL of the examined peptides (0.15 M NaCl as contro), a buffer, and 0.1 mL of enzyme solution were mixed. The final peptide concentrations were: 0.2 mM, 2 mM, and 20 mM. The mixture was incubated at 37 °C for 3 min; then the synthetic substrate solution was added in the same buffer. […] The mean values from three independent experiments done in duplicate are presented. A method error of 5% was adopted as statistical error. […] IC50 was calculated mathematically by extrapolation using a linear plot.

urokinase = biological target: T2, urokinase (Homo sapiens, UniProt P00749); assay: Amidolytic activity of urokinase (chromogenic substrate pyro-Glu-Gly-Arg-pNA); type: biochemical
T2 construct: purchased Sigma (Schnelldorf, Germany)
Procedure: (§1) The determination of amidolytic activity was performed as previously described by Okada. A detailed description of the method is given below: 0.2 mL of the examined peptides (0.15 M NaCl as contro), a buffer, and 0.1 mL of enzyme solution were mixed. The final peptide concentrations were: 0.2 mM, 2 mM, and 20 mM. The mixture was incubated at 37 °C for 3 min; then the synthetic substrate solution was added in the same buffer. After 20 min of incubation, the reaction was stopped by adding 0.1 mL of 50% acetic acid and the absorbance of the released p-nitroaniline was measured at 405 nm. The mean values from three independent experiments done in duplicate are presented. A method error of 5% was adopted as statistical error. IC50 value was considered as the concentration of inhibitor that reduces absorbance by 50%, compared with absorbance measured under the same conditions without an inhibitor. IC50 was calculated mathematically by extrapolation using a linear plot. IC50 values are presented in Table 1 and Table 2, and graphically in Figure 1.
(§2) The buffers and the enzyme solutions included: • Tris buffer—0.6 mL (pH 8.8), enzyme: urokinase (50 units/mL), synthetic substrate: pyro-Glu-Gly-Arg-pNA·HCl (0.1 mL, 3 mM); • Tris buffer—0.5 mL (pH 8.4), enzyme: thrombin (1 units/mL), synthetic substrate: H-D-Phe-Pip-Arg-pNA (0.2 mL, 0.75 mM); • Tris buffer—0.5 mL (pH 7.4), enzyme: plasmin (0.4 units/mL), synthetic substrate: H-D-Val-Leu-Lys-pNA (0.2 mL, 3 mM); • Borate buffer—0.5 mL (pH 7.5), enzyme: trypsin (0.4 units/mL), synthetic substrate: Bzl-L-Arg-pNA·HCl (0.2 mL, 8 mM); • Tris buffer—0.6 mL (pH 9.0), enzyme: kallikrein (3 units/mL), synthetic substrate: H-D-Val-Leu-Arg-pNA·2HCl (0.1 mL, 75 mM); • Tris buffer—0.6 mL (pH 8.4), enzyme: t-PA ([…]), synthetic substrate: H-D-Ile-Pro-Arg-pNA (0.1 mL, 10 mM) • Tris buffer—0.6 mL (pH 9.0), enzyme: chymotrypsin (0.4 units/mL), synthetic substrate: Suc-Phe-pNA (0.2 mL, 8 mM)

plasmin = biological target: T3, plasmin (Homo sapiens, UniProt P00747); assay: Amidolytic activity of plasmin (chromogenic substrate H-D-Val-Leu-Lys-pNA); type: biochemical
T3 construct: purchased Chromogenix (Milano, Italy)
Procedure: as §1, §2

[1] = Viability of fibroblast cells, MTT assay; type: cell-based, Human; conditions: human, primary dermal fibroblast cells, 24 h, MTT, ± 2, read-out: Viability of fibroblast cells
Procedure: (§3) Viability of fibroblast cells was examined with the use of the MTT assay. MTT, a yellow tetrazole, is reduced to purple formazan only in living cells. Absorbance of the coloured solution was measured by a spectrophotometer.
(§4) These studies were performed on primary dermal fibroblasts cells. The cells were maintained in DMEM supplemented with 10% fetal bovine serum (FBS), 2 mM glutamin, 50 U/mL penicillin and […] streptomycin at 37 °C in a 5% CO2 incubator. For experiments, cells cultures were plated at a density of 1 × 10^6/well in six-well culture plates (Costar, St. Louis, MO, USA) in 2 mL of growth medium. Cells reached about 80% of confluency at day 2 were used for the assays.
(§5) Toxicity of the tested substances was determined using an MTT [3-(4,5-dimethylthiazol-2-yl)-2,5-diphenyltetrazolium bromide)] assay. Palmitoyl and lipoyl peptides were dissolved in DMSO (dimethyl sulfoxide), the other peptides in DMEM, and added to the cell culture medium. Simultaneously, the same concentrations of DMSO without peptides were added to cells, serving as controls. The final peptide concentrations were: 1 μM, 10 μM, and 100 μM. After 24 h incubation, the cells cultured with the tested compounds were washed with phosphate-buffered saline (PBS) and then incubated for 4 h in 2 mL of MTT solution (5 mg/mL). After removing the medium, the cells were lysed in 200 μL of DMSO with 20 μL of Sorensen’s buffer (pH 10.5, 0.1 mol/L glycine with 0.1 mol/L NaCl). The absorbance of converted dye in living cells was measured at a wavelength of 570 nm. The mean values ± SD from three independent experiments done in duplicate are presented.

fibroblast cells = assay: DNA biosynthesis, [3H] thymidine incorporation in fibroblasts; type: cell-based, Human; conditions: for DNA biosynthesis: 24 h, ± 2
Procedure: In the radioactive method of DNA measurement in the liquid sample, the radioactive activity of the sample was measured. This technique involves mixing a radioactive material with a scintillation fluid/liquid (which contains a scintillator), resulting in photon emission. This emission is counted by a suitable detector.
To examine the effect of the studied compounds on DNA biosynthesis of fibroblast cells, they were plated in 24-well tissue culture dishes at 1 × 10^5 cells per well with 1 mL of growth medium. The plates were incubated after 48 h with the examined peptides and 0.5 μCi of [^3H] thymidine (6.7 Ci/mmol) at 37 °C. The final peptide concentrations were: 10 μM, 50 μM, and 100 μM. After 24 h incubation, the cells were rinsed with PBS three times and twice with 5% trichloroacetic acid. To measure the radioactivity incorporated into DNA, the cells were solubilized with 1 mL of 0.1 M sodium hydroxide containing 1% SDS and an addition of scintillation liquid (9 mL) (https://www.perkinelmer.com/pl/category/scintillation-cocktails). Radioactivity was determined in a scintillation counter, i.e., Liquid Scintillation Analyzer Tri-Carb 2810 TR (Perkin Elmer, Waltham, MA USA)) with Quanto Smart TM software (Perkin Elmer).

Fibroblasts = assay: Collagen biosynthesis, 5[3H]-proline incorporation in fibroblasts; type: cell-based, Human; conditions: 24 h, ± 2
Procedure: In collagen biosynthesis assays cells were counted in a haemocytometer and incorporation of a radioactive precursor 5[^3H]-proline into collagen was measured. Total protein synthesis was calculated from the sum of radioactivity of collagenase-resistant proteins and collagen digest.
Fibroblasts were cultured in six-well plates until confluence. Then they were incubated for 24 h in growth medium in the absence or presence of the tested peptides and 5[^3H]-proline (5 µCi/mL, 28 Ci/mM). The final peptide concentrations were: 10 μM, 50 μM and 100 μM. In accordance with the method proposed by Peterkofsky and Diegelmann, incorporation of the radioactive precursor into collagen was determined by digesting the proteins with purified Clostridium histolyticum collagenase. Finally, the monolayers were washed with sterile 10mM PBS, pH 7.4 four times, and cell membranes were disrupted using a sonicator. Aliquots of the cell homogenate were removed for protein measurement using the BCA™ Protein Assay Kit (Pierce, Waltham, MA USA). The results are shown as combined values for cell plus medium fractions.

[2] = system: primary dermal fibroblasts cells; assay: Viability of fibroblast cells, MTT assay; type: cell-based, Human; conditions: MTT, 1-100 μM, 24 h
Procedure: as §3, §4, §5

[3] = amidolytic activity, Tris pH 8.8, 37 °C, IC50 by extrapolation using a linear plot, error 5%, read-out: IC50 Urokinase
[4] = amidolytic activity, Tris pH 7.4, 37 °C, IC50 by extrapolation using a linear plot, error 5%, read-out: IC50 Plasmin
[5] = converted from IC50 of Table 1, read-out: -logIC50 Plasmin (converted)

T3 sequence (P00747 581-810 limits assumed): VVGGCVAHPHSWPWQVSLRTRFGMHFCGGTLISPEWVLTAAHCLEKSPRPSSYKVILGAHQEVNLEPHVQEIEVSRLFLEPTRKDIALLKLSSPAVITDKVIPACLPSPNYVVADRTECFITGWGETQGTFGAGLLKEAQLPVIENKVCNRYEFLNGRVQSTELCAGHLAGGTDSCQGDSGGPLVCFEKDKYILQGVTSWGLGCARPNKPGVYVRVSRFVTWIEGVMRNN
T3 sequence (P00747 97-580 partner limits assumed): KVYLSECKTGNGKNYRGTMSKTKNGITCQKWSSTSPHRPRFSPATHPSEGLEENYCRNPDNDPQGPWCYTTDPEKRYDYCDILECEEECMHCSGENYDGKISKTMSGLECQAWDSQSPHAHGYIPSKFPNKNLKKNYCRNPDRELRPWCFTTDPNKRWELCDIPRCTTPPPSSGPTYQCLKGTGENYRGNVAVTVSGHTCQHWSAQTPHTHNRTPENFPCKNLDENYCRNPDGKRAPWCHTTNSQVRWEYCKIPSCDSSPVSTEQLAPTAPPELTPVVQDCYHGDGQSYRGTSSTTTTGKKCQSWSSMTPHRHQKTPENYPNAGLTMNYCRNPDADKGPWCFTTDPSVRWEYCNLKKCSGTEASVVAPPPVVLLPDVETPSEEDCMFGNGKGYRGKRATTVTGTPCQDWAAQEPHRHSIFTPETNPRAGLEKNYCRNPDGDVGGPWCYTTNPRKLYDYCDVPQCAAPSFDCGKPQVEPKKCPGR

Compound | level of inhibition of thrombin activity (thrombin) | IC50 (thrombin) | level of inhibition of urokinase activity (urokinase) | level of inhibition of plasmin activity (plasmin) | viability at 24 h, 1 µmol/L [1] | viability at 24 h, 10 µmol/L [1] | viability at 24 h, 100 µmol/L [1] | IC50 (urokinase; [3]) | IC50 (plasmin; [4]) | DNA biosynthesis (fibroblast cells; 10 µmol/L) | DNA biosynthesis (fibroblast cells; 50 µmol/L) | DNA biosynthesis (fibroblast cells; 100 µmol/L) | DNA synthesis (fibroblast cells; 10, 50, 100 μM) | Collagen biosynthesis (Fibroblasts; 10 µmol/L) | Collagen biosynthesis (Fibroblasts; 50 µmol/L) | Collagen biosynthesis (Fibroblasts; 100 µmol/L) | cytotoxicity / cell growth effect on fibroblasts [2] | IC50 (urokinase; converted from IC50 of Table 1, read-out: -logIC50 Urokinase (converted)) | IC50 (plasmin; [5])
CCCCCCCCCCCCCCCC(=O)N[C@@H](CCCNC(=N)N)C(=O)N[C@H](C(=O)N[C@H](C(=O)N[C@@H](CCCNC(=N)N)C(=O)N[C@@H](CO)C(=O)O)[C@@H](C)O)[C@@H](C)O [Peptide 20, Pal-Arg-Thr-Thr-Arg-Ser-OH] (HELM PEPTIDE1{[CCCCCCCCCCCCCCCC(=O)[*:2]].R.T.T.R.S}$$$$V2.0) | above 90% | < 0.2 mM | above 90% | above 90% | 90% | 90% | 103% | – | – | – | – | – | – | – | – | – | – | – | –
CCCCCCCCCCCCCCCC(=O)N[C@@H](CCCNC(=N)N)C(=O)N[C@H](C(=O)N[C@H](C(=O)N[C@@H](CCCCN)C(=O)N[C@@H](CO)C(=O)O)[C@@H](C)O)[C@@H](C)O [Peptide 28, Pal-Arg-Thr-Thr-Lys-Ser-OH] (HELM PEPTIDE1{[CCCCCCCCCCCCCCCC(=O)[*:2]].R.T.T.K.S}$$$$V2.0) | above 90% | – | above 90% | above 90% | 104% | 103% | 106% | – | – | – | – | – | – | – | – | – | – | – | –
Ac-KTTKS-NH2 [Peptide 6, Ac-Lys-Thr-Thr-Lys-Ser-NH2] | – | 3.25 ± 0.16 mM | – | – | 97% | 88% | 86% | > 20 mM | 2.92 ± 0.15 mM | – | – | – | – | – | – | – | – | – | –
Ac-KTTKS-OH [Peptide 2, Ac-Lys-Thr-Thr-Lys-Ser-OH] | – | 2.2 ± 0.11 mM | – | – | 98% | 88% | 82% | 3.88 ± 0.19 mM | 2.78 ± 0.14 mM | – | – | – | – | – | – | – | – | – | –
Ac-KTTRS-NH2 [Peptide 14, Ac-Lys-Thr-Thr-Arg-Ser-NH2] | – | 2.95 ± 0.15 mM | – | – | 112% | 135% | 150% | 5.56 ± 0.28 mM | 5.34 ± 0.27 mM | 114 % of Control | 96 % of Control | 127 % of Control | an increase in DNA synthesis was observed | 105 % of Control | 171 % of Control | 157 % of Control | exhibited cell growth effects; also recorded: showed proliferative effect; also recorded: exhibited the effect of cell growth | – | –
Ac-KTTRS-OH [Peptide 10, Ac-Lys-Thr-Thr-Arg-Ser-OH] | – | 2.89 ± 0.14 mM | – | – | 104% | 100% | 94% | – | 2.24 ± 0.11 mM | – | – | – | – | – | – | – | – | 4.79 mM | –
Ac-RTTKS-NH2 [Peptide 30, Ac-Arg-Thr-Thr-Lys-Ser- NH2] | – | 1.59 ± 0.08 mM | – | – | 95% | 105% | 101% | 12.1 ± 0.6 mM | 5 ± 0.25 mM | – | – | – | – | – | – | – | – | – | –
Ac-RTTRS-NH2 [Peptide 22, Ac-Arg-Thr-Thr-Arg-Ser-NH2] | – | 1.47 ± 0.074 mM | – | – | 102% | 99% | 101% | > 20 mM | 9.08 ± 0.45 mM | – | – | – | – | – | – | – | – | – | –
Ac-RTTRS-OH [Peptide 18, Ac-Arg-Thr-Thr-Arg-Ser-OH] | – | 3.12 ± 0.16 mM | – | – | 88% | 103% | 107% | 3.24 ± 0.16 mM | 8.81 ± 0.44 mM | – | – | – | – | – | – | – | – | – | 8.91 mM
H-KTTKS-NH2 [Peptide 5, H-Lys-Thr-Thr-Lys-Ser-NH2] | – | 7.04 ± 0.35 mM | – | – | 91% | 91% | 100% | 9.15 ± 0.46 mM | 0.53 ± 0.026 mM | – | – | – | – | – | – | – | – | – | –
H-RTTKS-NH2 [Peptide 29, H-Arg-Thr-Thr-Lys-Ser-NH2] | – | 2.43 ± 0.12 mM | – | – | 101% | 111% | 110% | 7.95 ± 0.4 mM | 0.3 ± 0.015 mM | – | – | – | – | – | – | – | – | – | 0.309 mM
H-RTTKS-OH [Peptide 25, H-Arg-Thr-Thr-Lys-Ser-OH] | – | 2.51 ± 0.13 mM | – | – | 97% | 87% | 109% | < 0.2 mM | 0.54 ± 0.027 mM | – | – | – | – | – | – | – | – | – | –
H-RTTRS-NH2 [Peptide 21, H-Arg-Thr-Thr-Arg-Ser-NH2] | – | 2.93 ± 0.14 mM | – | – | 84% | 94% | 103% | 12 ± 0.59 mM | 0.44 ± 0.022 mM | – | – | – | – | – | – | – | – | – | –
